Measurements from patent US20190169181A1, “FUMAGILLOL COMPOUNDS AND METHODS OF MAKING AND USING SAME” (Zafgen, Inc., priority 2016, published 2019).
Where a name gives a salt, the structure may show the parent alone.

Assays:
[1] = tested on: Diet Induced Obese (DIO) C57BL/6 mice; experiment: 10 day DIO mouse model, weight loss vs. vehicle; format: in vivo; conditions: 240 h; for inhibition in vivo at 0.3 mg/kg: 0.3 mpk sc once a day for 10 days; for inhibition in vivo at 1 mg/kg: 1.0 mpk sc once a day for 10 days
Source text: The objective of this study design was to investigate the efficacy of disclosed compounds in a 10 day DIO mouse model. Effects on body weight, food intake, hematology and blood chemistry were the primary readouts of this study design. Male, Diet Induced Obese (DIO) C57BL/6 mice, 19-21 weeks of age (13-15 weeks on high fat diet) were ordered from a certified vendor and upon receipt were housed on irradiated corncob bedding in micro-isolator cages on a 12-hour light-dark cycle (0700-1900) at 68-74° F. and 30-70% humidity. Mice were fed Research Diets D12492 (60% Kcal fat, 20% Kcal carbohydrate and 20% protein) and provided water ad libitum. DIO mice were received and housed in the facility for approximately two weeks prior to the start of test article administration. On Day −4 or −3, mice were randomized into study groups based on body weight and body weights were continued to be recorded daily for the duration of the study. Daily food intake was assessed starting on Study Day −2 by weighing of the food with hopper together to avoid loss of food in transfer.
Compounds were formulated into a 100% DMSO stock (at 9 mg/mL) prior to the start, and further diluted into the target working concentration using the vehicle of 10% DMSO in water. Prior to test article administration, starting on Day −3 a dosing acclimation occurred with all animals receiving a subcutaneous injection of vehicle (10% DMSO) only for 3 days. Starting on Day 1, test compounds or vehicle were administered based on individual body weight, subcutaneously, once a day for 10 days. All mice were sacrificed on Day 11, 24 hours following the final dosing on Day 10. After sacrifice, whole blood was collected and analyzed for hematology and blood chemistry parameters.
Compounds were tested for weight loss vs. vehicle at 0.3 and 1.0 mpk sc (mg per kg animal weight delivered subcutaneously), and the results are shown in Table 2 below.

recombinant human MetAP2 = target: T1, recombinant human MetAP2 (Homo sapiens, UniProt P50579); experiment: Recombinant human MetAP2 enzyme inhibition assay (MAS peptide / amino acid oxidase / Amplex Ultrared readout); format: biochemical; conditions: Flag tagged human recombinant MetAP2, 25 minutes at 25° C.
T1 construct: Flag; made in house
T1 sequence (P50579 whole entry): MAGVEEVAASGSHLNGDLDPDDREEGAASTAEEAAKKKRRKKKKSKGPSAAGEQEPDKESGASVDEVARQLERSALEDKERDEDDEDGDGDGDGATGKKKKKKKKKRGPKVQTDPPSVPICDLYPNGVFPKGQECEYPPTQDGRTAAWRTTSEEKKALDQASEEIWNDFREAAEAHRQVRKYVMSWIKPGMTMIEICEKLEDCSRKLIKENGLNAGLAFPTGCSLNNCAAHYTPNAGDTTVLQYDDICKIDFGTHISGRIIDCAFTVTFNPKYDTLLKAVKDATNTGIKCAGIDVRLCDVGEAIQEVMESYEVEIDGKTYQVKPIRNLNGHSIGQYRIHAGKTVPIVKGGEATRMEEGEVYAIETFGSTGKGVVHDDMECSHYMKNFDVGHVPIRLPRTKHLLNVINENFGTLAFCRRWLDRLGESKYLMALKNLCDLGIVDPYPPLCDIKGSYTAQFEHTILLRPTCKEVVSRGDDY
Description: Compounds are tested for their capacity to inhibit recombinant human MetAP2 activity using the following assay.
Flag tagged Human recombinant MetAP2 expressed and isolated for use as the enzyme source. 10 mM stock solutions of compounds were prepared in 100% DMSO and further diluted in 100% DMSO required concentration to 1 mM stocks. The stock compound solutions and DMSO vehicle controls were diluted to target final compound concentrations using assay buffer to a final concentration of 50 mM HEPES containing 100 mM NaCl, pH adjusted to 7.5. The MAS peptide was formulated to a 7.5 mM stock in distilled water and prior to use further diluted 1:4. […] 40 μl of enzyme was mixed with 100 μl of MnCl2 then further diluted in assay buffer to a final concentration of 16 μg/ml. To test for compound effect on MetAP2 enzyme activity, 5 μl of test compound, 10 μl of MAS substrate/amino acid oxidase mixture, 10 μl of MetAP2 was added to test wells in a 384 well black plate with blank wells containing no enzyme, replaced with 10 μl of assay buffer. All compounds were tested in duplicate on two occasions on the same day.
The plate was sealed with a TopSeal A cover and mixed briefly on an orbital mixer at 900 rpm. The plate was incubated for a further 25 minutes at 25° C. A 5× stock of Amplex buffer was prepared (0.25 M sodium phosphate, pH 7.4) and stored at 4° C. […] Horse radish peroxidase was diluted in […] of Amplex buffer, 100 μl of this was combined with 50 μl of Amplex Ultrared in […] of 1× Amplex buffer to generate sufficient detection reagent for a 384 well plate. 25 μl detection reagent was added to each well of the test plate, which was re-sealed and mixed briefly on an orbital shaker. The plate was transferred to an Envision Multi-label reader and RFU measured corresponding to excitation 531 nm and emission 595 nm. At the end of the MetAP2 incubation 25 μl Amplex/HRP mixture per well was added and the plate read plate on a plate reader.

Row | IC50 (recombinant human MetAP2) | Structure (SMILES) | inhibition in vivo at 0.3 mg/kg [1] | inhibition in vivo at 1 mg/kg [1]
1 | – | CO[C@@H]1[C@H](OC(=O)/C=C/c2ccc(OCCN(C)C)cc2)CC[C@]2(CO2)[C@H]1[C@@]1(C)O[C@@H]1CC=C(C)C [A, [(3R,6R,7S,8S)-7-methoxy-8-[(2R,3R)-2-methyl-3-(3-methylbut-2-enyl)oxiran-2-yl]-2-oxaspiro[2.5]octan-6-yl] (E)-3-[4-[2-(dimethylamino)ethoxy]phenyl]prop-2-enoate, reference compound] | 20% | 18%
2 | < 50 nM | CO[C@@H]1[C@H](OC(=O)N[C@H](c2nnc(N)o2)C(C)C)CC[C@]2(CO2)[C@H]1[C@@]1(C)O[C@@H]1CC=C(C)C [Example 1, (3R,4S,5S,6R)-5-methoxy-4-((2R,3R)-2-methyl-3-(3-methylbut-2-enyl)oxiran-2-yl)-1-oxaspiro[2.5]octan-6-yl (S)-1-(5-amino-1,3,4-oxadiazol-2-yl)-2-methylpropylcarbamate] | 2.6% | 2.1%
3 | 50 to 500 nM | CNc1nnc([C@H](NC(=O)O[C@@H]2CC[C@]3(CO3)[C@@H]([C@@]3(C)O[C@@H]3CC=C(C)C)[C@@H]2OC)C(C)C)o1 [Example 3, (3R,5S,6R)-5-methoxy-4-((2R,3R)-2-methyl-3-(3-methylbut-2-enyl)oxiran-2-yl)-1-oxaspiro[2.5]octan-6-yl (R)-2-methyl-1-(5-(methylamino)-1,3,4-oxadiazol-2-yl)propylcarbamate] | 1.1% | –
4 | < 50 nM | CO[C@@H]1[C@H](OC(=O)N[C@H](c2ncc[nH]2)C(C)C)CC[C@]2(CO2)[C@H]1[C@@]1(C)O[C@@H]1CC=C(C)C [Example 4, (3R,4S,5S,6R)-5-methoxy-4-((2R,3R)-2-methyl-3-(3-methylbut-2-enyl)oxiran-2-yl)-1-oxaspiro[2.5]octan-6-yl (S)-1-(1H-imidazol-2-yl)-2-methylpropylcarbamate] | 3.9% | 0.7%
5 | 50 to 500 nM | CO[C@@H]1[C@H](OC(=O)N[C@H](c2nccn2C[C@H]2CCCN2C)C(C)C)CC[C@]2(CO2)[C@H]1[C@@]1(C)O[C@@H]1CC=C(C)C [Example 5, (3R,4S,5S,6R)-5-methoxy-4-((2R,3R)-2-methyl-3-(3-methylbut-2-enyl)oxiran-2-yl)-1-oxaspiro[2.5]octan-6-yl (S)-2-methyl-1-(1-(((R)-1-methylpyrrolidin-2-yl)methyl)-1H-imidazol-2-yl)propylcarbamate formate] | 3.1% | –
6 | < 50 nM | CNc1nnc([C@H](NC(=O)O[C@@H]2CC[C@]3(CO3)[C@@H]([C@@]3(C)O[C@@H]3CC=C(C)C)[C@@H]2OC)C(C)C)s1 [Example 7, (3R,4S,5S,6R)-5-methoxy-4-((2R,3R)-2-methyl-3-(3-methylbut-2-enyl)oxiran-2-yl)-1-oxaspiro[2.5]octan-6-yl (R)-2-methyl-1-(5-(methylamino)-1,3,4-thiadiazol-2-yl)propylcarbamate] | 1.8% | –
7 | 50 to 500 nM | CNc1nnc([C@@H](NC(=O)O[C@@H]2CC[C@]3(CO3)[C@@H]([C@@]3(C)O[C@@H]3CC=C(C)C)[C@@H]2OC)C(C)C)s1 [Example 8, (3R,4S,5S,6R)-5-methoxy-4-((2R,3R)-2-methyl-3-(3-methylbut-2-enyl)oxiran-2-yl)-1-oxaspiro[2.5]octan-6-yl (S)-2-methyl-1-(5-(methylamino)-1,3,4-thiadiazol-2-yl)propylcarbamate] | 2% | –
8 | < 50 nM | CO[C@@H]1[C@H](OC(=O)N[C@H](c2nnc[nH]2)C(C)C)CC[C@]2(CO2)[C@H]1[C@@]1(C)O[C@@H]1CC=C(C)C [Example 9, (3R,4S,5S,6R)-5-methoxy-4-((2R,3R)-2-methyl-3-(3-methylbut-2-enyl)oxiran-2-yl)-1-oxaspiro[2.5]octan-6-yl (S)-2-methyl-1-(4H-1,2,4-triazol-3-yl)propylcarbamate] | 2.1% | –
9 | 50 to 500 nM | CO[C@@H]1[C@H](OC(=O)N[C@H](c2noc(=O)[nH]2)C(C)C)CC[C@]2(CO2)[C@H]1[C@@]1(C)O[C@@H]1CC=C(C)C [Example 10, (3R,4S,5S,6R)-5-methoxy-4-((2R,3R)-2-methyl-3-(3-methylbut-2-enyl)oxiran-2-yl)-1-oxaspiro[2.5]octan-6-yl (S)-2-methyl-1-(5-oxo-4,5-dihydro-1,2,4-oxadiazol-3-yl)propylcarbamate] | 4.1% | 2.9%
10 | 50 to 500 nM | CO[C@@H]1[C@H](OC(=O)N[C@@H](c2noc(=O)[nH]2)C(C)C)CC[C@]2(CO2)[C@H]1[C@@]1(C)O[C@@H]1CC=C(C)C [Example 11, (3R,4S,5S,6R)-5-methoxy-4-((2R,3R)-2-methyl-3-(3-methylbut-2-enyl)oxiran-2-yl)-1-oxaspiro[2.5]octan-6-yl (R)-2-methyl-1-(5-oxo-4,5-dihydro-1,2,4-oxadiazol-3-yl)propylcarbamate] | -1.3% | 6.6%
11 | < 50 nM | CO[C@@H]1[C@H](OC(=O)N[C@H](c2cn(C[C@@H]3CCCN3C)cn2)C(C)C)CC[C@]2(CO2)[C@H]1[C@@]1(C)O[C@@H]1CC=C(C)C [Example 14, (3R,4S,5S,6R)-5-methoxy-4-((2R,3R)-2-methyl-3-(3-methylbut-2-enyl)oxiran-2-yl)-1-oxaspiro[2.5]octan-6-yl (S)-2-methyl-1-(1-(((S)-1-methylpyrrolidin-2-yl)methyl)-1H-imidazol-4-yl)propylcarbamate formate] | 5.8% | 10.3%
12 | 50 to 500 nM | CO[C@@H]1[C@H](OC(=O)N[C@H](c2cn(CCN3CCOCC3)cn2)C(C)C)CC[C@]2(CO2)[C@H]1[C@@]1(C)O[C@@H]1CC=C(C)C [Example 17, (3R,4S,5S,6R)-5-methoxy-4-((2R,3R)-2-methyl-3-(3-methylbut-2-enyl)oxiran-2-yl)-1-oxaspiro[2.5]octan-6-yl (S)-2-methyl-1-(1-(2-morpholinoethyl)-1H-imidazol-4-yl)propylcarbamate] | 3.2% | –
13 | 50 to 500 nM | CO[C@@H]1[C@H](OC(=O)N[C@H](c2cn(C[C@H]3CCN(CC(F)F)C3)cn2)C(C)C)CC[C@]2(CO2)[C@H]1[C@@]1(C)O[C@@H]1CC=C(C)C [Example 18, (3R,4S,5S,6R)-5-methoxy-4-((2R,3R)-2-methyl-3-(3-methylbut-2-enyl)oxiran-2-yl)-1-oxaspiro[2.5]octan-6-yl (S)-1-(1-(((S)-1-(2,2-difluoroethyl)pyrrolidin-3-yl)methyl)-1H-imidazol-4-yl)-2-methylpropylcarbamate] | -0.4% | –
14 | 50 to 500 nM | CO[C@@H]1[C@H](OC(=O)N[C@H](c2cn(C[C@@H]3CCN(CC(F)F)C3)cn2)C(C)C)CC[C@]2(CO2)[C@H]1[C@@]1(C)O[C@@H]1CC=C(C)C [Example 19, (3R,4S,5S,6R)-5-methoxy-4-((2R,3R)-2-methyl-3-(3-methylbut-2-enyl)oxiran-2-yl)-1-oxaspiro[2.5]octan-6-yl (S)-1-(1-(((R)-1-(2,2-difluoroethyl)pyrrolidin-3-yl)methyl)-1H-imidazol-4-yl)-2-methylpropylcarbamate] | 1.9% | –
15 | < 50 nM | CO[C@@H]1[C@H](OC(=O)N[C@H](c2c[nH]nn2)C(C)C)CC[C@]2(CO2)[C@H]1[C@@]1(C)O[C@@H]1CC=C(C)C [Example 21, (3R,4S,5S,6R)-5-methoxy-4-((2R,3R)-2-methyl-3-(3-methylbut-2-enyl)oxiran-2-yl)-1-oxaspiro[2.5]octan-6-yl (S)-2-methyl-1-(1H-1,2,3-triazol-4-yl)propylcarbamate] | – | –
